{"source": "paper PMC4904262", "about": "(ACS Medicinal Chemistry Letters, 2016)", "key": {"[1]": {"biological_target": "PRK2 (Homo sapiens, UniProt Q16513)", "sequence (Q16513 whole entry)": "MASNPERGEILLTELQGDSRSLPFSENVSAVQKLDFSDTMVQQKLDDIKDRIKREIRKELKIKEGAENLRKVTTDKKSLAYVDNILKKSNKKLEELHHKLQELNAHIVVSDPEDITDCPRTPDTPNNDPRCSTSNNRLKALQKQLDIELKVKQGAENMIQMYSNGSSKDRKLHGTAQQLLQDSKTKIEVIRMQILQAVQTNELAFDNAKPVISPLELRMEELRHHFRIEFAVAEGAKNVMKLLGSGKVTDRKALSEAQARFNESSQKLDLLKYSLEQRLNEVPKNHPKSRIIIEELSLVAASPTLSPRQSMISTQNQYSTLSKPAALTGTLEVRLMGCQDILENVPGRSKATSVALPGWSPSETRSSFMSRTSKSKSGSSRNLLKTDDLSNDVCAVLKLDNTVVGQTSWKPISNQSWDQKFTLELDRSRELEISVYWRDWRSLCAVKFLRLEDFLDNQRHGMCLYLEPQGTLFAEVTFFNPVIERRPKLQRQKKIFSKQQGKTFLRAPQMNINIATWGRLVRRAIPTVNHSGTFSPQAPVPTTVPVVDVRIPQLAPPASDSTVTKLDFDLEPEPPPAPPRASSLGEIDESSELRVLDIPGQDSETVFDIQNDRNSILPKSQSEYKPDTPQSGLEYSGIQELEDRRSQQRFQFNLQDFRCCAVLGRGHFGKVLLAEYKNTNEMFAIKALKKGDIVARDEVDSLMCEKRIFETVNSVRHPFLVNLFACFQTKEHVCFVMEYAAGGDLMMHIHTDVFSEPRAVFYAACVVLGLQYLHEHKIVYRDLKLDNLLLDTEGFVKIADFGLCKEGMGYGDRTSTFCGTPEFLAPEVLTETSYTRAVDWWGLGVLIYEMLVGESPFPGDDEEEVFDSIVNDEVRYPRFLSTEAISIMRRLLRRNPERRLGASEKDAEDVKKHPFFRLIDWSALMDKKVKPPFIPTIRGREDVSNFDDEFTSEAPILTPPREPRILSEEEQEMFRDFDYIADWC", "details": "1 µM, ATP at Km"}, "[2]": {"biological_target": "PI3K DELTA (Homo sapiens, UniProt O00329)", "sequence (O00329 whole entry)": "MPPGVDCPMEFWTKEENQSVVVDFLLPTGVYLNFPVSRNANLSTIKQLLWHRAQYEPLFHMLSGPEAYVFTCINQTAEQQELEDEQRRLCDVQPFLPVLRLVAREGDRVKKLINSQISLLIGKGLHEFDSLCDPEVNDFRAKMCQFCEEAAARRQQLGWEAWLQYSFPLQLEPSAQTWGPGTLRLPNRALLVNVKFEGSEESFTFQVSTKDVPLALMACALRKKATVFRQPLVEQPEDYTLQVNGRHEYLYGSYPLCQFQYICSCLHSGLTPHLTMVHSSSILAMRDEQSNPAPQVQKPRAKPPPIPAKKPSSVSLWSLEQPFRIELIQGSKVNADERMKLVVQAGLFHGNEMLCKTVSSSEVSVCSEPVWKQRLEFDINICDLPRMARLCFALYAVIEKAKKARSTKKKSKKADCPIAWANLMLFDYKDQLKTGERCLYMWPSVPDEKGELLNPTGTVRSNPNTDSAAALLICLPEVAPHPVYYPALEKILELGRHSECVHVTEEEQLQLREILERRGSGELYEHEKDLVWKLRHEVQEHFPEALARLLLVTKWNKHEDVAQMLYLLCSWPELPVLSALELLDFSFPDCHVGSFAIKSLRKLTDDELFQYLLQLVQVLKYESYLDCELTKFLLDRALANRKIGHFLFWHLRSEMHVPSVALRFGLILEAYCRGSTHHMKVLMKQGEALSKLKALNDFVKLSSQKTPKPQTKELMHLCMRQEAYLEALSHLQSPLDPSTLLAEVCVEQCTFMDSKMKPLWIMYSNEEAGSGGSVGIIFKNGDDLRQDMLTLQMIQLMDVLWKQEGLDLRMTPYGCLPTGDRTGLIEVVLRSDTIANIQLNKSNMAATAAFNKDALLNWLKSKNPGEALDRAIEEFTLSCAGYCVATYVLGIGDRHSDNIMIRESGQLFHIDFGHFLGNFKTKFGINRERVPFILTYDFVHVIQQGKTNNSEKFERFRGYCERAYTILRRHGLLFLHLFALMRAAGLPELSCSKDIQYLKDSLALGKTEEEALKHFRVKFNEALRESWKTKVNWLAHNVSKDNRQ", "sequence (P27986 whole entry partner)": "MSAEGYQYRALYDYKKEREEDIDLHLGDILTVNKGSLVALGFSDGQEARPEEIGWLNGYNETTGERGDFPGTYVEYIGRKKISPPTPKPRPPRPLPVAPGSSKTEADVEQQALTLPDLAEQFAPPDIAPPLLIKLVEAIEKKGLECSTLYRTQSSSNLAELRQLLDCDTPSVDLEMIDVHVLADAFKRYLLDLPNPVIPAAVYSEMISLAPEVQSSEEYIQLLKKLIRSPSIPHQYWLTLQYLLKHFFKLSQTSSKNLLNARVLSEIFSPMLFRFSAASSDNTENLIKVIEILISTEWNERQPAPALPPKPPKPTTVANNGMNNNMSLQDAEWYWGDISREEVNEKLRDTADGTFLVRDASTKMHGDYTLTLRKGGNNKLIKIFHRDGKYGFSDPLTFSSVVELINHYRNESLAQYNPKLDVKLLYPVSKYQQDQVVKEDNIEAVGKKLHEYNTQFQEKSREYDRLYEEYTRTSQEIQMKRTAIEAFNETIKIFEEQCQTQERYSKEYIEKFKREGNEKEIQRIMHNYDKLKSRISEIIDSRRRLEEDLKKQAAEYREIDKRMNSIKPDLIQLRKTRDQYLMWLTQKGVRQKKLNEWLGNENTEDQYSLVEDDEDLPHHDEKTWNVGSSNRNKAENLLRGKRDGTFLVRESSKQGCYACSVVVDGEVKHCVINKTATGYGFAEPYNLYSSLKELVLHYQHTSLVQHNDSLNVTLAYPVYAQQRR", "details": "1 µM, ATP at Km"}, "[3]": {"biological_target": "JAK2 (Homo sapiens, UniProt O60674)", "details": "1 µM, ATP at Km"}, "[4]": {"biological_target": "[…] (Homo sapiens, UniProt Q8IU85)", "details": "1 µM, ATP at Km"}, "[5]": {"test_system": "Caco-2", "details": "human"}, "[6]": {"biological_target": "CKIT (Homo sapiens, UniProt P10721)", "details": "1 µM, ATP at Km"}, "[7]": {"biological_target": "CDK19 in the presence of cyclin C (Homo sapiens, UniProt Q9BWU1)", "assay": "biochemical", "details": "read-out: CDK19 residence time ± SD"}, "[8]": {"biological_target": "MAPKAP-K3 (Homo sapiens, UniProt Q16644)", "details": "1 µM, ATP at Km"}, "[9]": {"biological_target": "AURKC (Homo sapiens, UniProt Q9UQB9)", "sequence (Q9UQB9 whole entry)": "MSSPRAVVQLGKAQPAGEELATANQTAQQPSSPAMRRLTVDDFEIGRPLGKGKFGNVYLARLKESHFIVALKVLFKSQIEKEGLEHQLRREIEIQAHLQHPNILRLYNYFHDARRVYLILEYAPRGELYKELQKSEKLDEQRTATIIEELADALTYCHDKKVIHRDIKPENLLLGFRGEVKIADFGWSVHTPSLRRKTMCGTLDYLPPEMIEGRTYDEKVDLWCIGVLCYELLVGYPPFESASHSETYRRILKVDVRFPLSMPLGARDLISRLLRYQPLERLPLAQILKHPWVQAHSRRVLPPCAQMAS", "details": "1 µM, ATP at Km"}, "[10]": {"biological_target": "GSK3ALPHA (Homo sapiens, UniProt P49840)", "sequence (P49840 whole entry)": "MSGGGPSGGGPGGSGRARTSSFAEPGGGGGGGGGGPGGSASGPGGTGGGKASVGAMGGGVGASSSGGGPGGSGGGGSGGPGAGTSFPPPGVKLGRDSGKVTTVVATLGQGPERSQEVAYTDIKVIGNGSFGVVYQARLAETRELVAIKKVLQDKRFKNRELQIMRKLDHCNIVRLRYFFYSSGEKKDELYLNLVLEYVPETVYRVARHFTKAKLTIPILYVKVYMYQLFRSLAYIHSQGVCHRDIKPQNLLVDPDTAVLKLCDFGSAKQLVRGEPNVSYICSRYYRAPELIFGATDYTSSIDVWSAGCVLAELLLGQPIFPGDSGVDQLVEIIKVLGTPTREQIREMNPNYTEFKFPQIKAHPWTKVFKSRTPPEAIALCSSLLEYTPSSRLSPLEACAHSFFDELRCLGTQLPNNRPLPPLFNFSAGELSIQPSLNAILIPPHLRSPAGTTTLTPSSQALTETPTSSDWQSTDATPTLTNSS", "details": "1 µM, ATP at Km"}, "[11]": {"assay": "in vitro", "details": "mouse, plasma"}, "[12]": {"assay": "in vivo", "details": "mouse"}, "[13]": {"biological_target": "PKA (Homo sapiens, UniProt P17612)", "details": "1 µM, ATP at Km"}, "[14]": {"biological_target": "JNK1ALPHA1 (Homo sapiens, UniProt P45983)", "sequence (P45983 1-384 isoform P45983-2)": "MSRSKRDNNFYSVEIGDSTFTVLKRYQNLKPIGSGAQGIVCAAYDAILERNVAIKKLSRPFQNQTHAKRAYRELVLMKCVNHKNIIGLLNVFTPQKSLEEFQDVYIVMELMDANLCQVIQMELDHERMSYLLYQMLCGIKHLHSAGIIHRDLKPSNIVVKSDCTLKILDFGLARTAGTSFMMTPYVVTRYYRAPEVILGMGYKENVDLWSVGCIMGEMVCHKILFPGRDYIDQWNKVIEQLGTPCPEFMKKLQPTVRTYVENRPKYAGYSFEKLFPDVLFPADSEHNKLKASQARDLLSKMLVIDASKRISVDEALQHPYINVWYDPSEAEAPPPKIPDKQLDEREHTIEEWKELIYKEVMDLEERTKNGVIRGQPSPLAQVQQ", "details": "1 µM, ATP at Km"}, "[15]": {"biological_target": "FER (Homo sapiens, UniProt P16591)", "sequence (P16591 whole entry)": "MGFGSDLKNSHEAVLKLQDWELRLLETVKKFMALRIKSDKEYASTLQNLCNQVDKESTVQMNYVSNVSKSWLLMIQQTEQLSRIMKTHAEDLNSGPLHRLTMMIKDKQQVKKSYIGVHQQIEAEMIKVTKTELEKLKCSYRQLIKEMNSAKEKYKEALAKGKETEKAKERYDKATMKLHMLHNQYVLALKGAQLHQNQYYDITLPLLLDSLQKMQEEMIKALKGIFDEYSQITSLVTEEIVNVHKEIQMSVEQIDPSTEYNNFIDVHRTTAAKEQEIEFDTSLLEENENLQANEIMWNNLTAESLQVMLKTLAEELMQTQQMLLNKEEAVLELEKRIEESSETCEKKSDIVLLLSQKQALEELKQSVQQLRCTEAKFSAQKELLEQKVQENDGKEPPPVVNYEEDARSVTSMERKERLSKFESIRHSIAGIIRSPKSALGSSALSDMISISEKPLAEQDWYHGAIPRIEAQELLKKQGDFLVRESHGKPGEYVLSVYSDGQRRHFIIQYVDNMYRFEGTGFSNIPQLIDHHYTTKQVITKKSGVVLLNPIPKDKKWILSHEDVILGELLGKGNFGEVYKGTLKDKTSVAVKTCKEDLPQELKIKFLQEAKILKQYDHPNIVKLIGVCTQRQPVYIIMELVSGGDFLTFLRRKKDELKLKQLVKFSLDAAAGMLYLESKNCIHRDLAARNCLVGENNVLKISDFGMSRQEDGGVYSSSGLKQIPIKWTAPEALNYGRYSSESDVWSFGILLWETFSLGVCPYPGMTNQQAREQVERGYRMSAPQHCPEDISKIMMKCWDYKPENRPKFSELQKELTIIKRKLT", "details": "1 µM, ATP at Km"}, "[16]": {"biological_target": "CDK8 in the presence of cyclin C (Homo sapiens, UniProt P49336)", "assay": "biochemical", "details": "read-out: CDK8 residence time ± SD"}, "[17]": {"test_system": "CK1(Y)", "details": "1 µM, ATP at Km"}, "[18]": {"biological_target": "CHK2(R145W) (Homo sapiens, UniProt O96017, R145W)", "details": "1 µM, ATP at Km"}, "[19]": {"biological_target": "EGFR(T790M) (Homo sapiens, UniProt P00533, T790M)", "details": "1 µM, ATP at Km"}, "[20]": {"biological_target": "SRC(1-530) (Homo sapiens, UniProt P12931)", "details": "1 µM, ATP at Km"}, "[21]": {"biological_target": "CHK2(I157T) (Homo sapiens, UniProt O96017, I157T)", "details": "1 µM, ATP at Km"}, "[22]": {"biological_target": "[…](V561D) (Homo sapiens, UniProt P16234, V561D)", "details": "1 µM, ATP at Km"}, "[23]": {"biological_target": "cMET (Y1248H) (Homo sapiens, UniProt P08581, Y1230H)", "details": "1 µM, ATP at Km"}, "[24]": {"biological_target": "BTK(R28H) (Homo sapiens, UniProt Q06187, R28H)", "details": "1 µM, ATP at Km"}, "[25]": {"biological_target": "RET (V804L) (Homo sapiens, UniProt P07949, V804L)", "details": "1 µM, ATP at Km"}, "[26]": {"test_system": "PI3 KINASE (P65A)", "details": "1 µM, ATP at Km"}, "[27]": {"biological_target": "CKIT(D816V) (Homo sapiens, UniProt P10721, D816V)", "details": "1 µM, ATP at Km"}, "[28]": {"biological_target": "PI3 KINASE (E542K/P85A) (Homo sapiens, UniProt P42336, E542K)", "details": "PI3 KINASE (E542K/P85A) (first listing); 1 µM; ATP at Km"}, "[29]": {"biological_target": "EGFR(T790M,L858R) (Homo sapiens, UniProt P00533, L858R/T790M)", "details": "1 µM, ATP at Km"}, "[30]": {"biological_target": "CKIT(V560G) (Homo sapiens, UniProt P10721, V560G)", "details": "1 µM, ATP at Km"}, "[31]": {"biological_target": "[…](D842V) (Homo sapiens, UniProt P16234, D842V)", "details": "1 µM, ATP at Km"}, "[32]": {"biological_target": "FLT3(D835Y) (Homo sapiens, UniProt P36888, D835Y)", "details": "1 µM, ATP at Km"}, "[33]": {"biological_target": "SRC(T341M) (Homo sapiens, UniProt P12931, T341M)", "details": "1 µM, ATP at Km"}, "[34]": {"biological_target": "cMET (Y1248C) (Homo sapiens, UniProt P08581, Y1230C)", "details": "1 µM, ATP at Km"}, "[35]": {"biological_target": "FGFR2(N549H) (Homo sapiens, UniProt P21802, N549H)", "details": "1 µM, ATP at Km"}, "[36]": {"biological_target": "HCK (Homo sapiens, UniProt P08631)", "details": "HCK (second listing, page 11); 1 µM; ATP at Km"}, "[37]": {"biological_target": "ABL(Y253F) (Homo sapiens, UniProt P00519, Y253F)", "details": "1 µM, ATP at Km"}, "[38]": {"biological_target": "EGFR(L858R) (Homo sapiens, UniProt P00533, L858R)", "details": "1 µM, ATP at Km"}, "[39]": {"biological_target": "TIE2(Y897S) (Homo sapiens, UniProt Q02763, Y897S)", "details": "1 µM, ATP at Km"}}, "data": [{"compound": "COC1CN(C(=O)c2ccc3c(N)ncc(-c4ccc(-c5cnn(C)c5)cc4)c3n2)C1", "note": "[Compound 51]", "values": [{"measurement": "percentage effect", "setting": "[1]", "result": -3, "unit": "%"}, {"measurement": "percentage effect", "setting": "[2]", "result": -10, "unit": "%"}, {"measurement": "percentage effect", "setting": "[3]", "result": -2, "unit": "%"}, {"measurement": "percentage effect", "setting": "[4]", "result": -3, "unit": "%"}, {"measurement": "Caco-2 ER", "setting": "[5]", "result": 5.9}, {"measurement": "Caco-2 PappA-B", "setting": "[5]", "result": "28.6 × 10^–6 cm/s"}, {"measurement": "percentage effect", "setting": "[6]", "result": 1, "unit": "%"}, {"measurement": "residence time", "setting": "[7]", "result": "31 ± 3", "unit": "min"}, {"measurement": "percentage effect", "setting": "[8]", "result": -15, "unit": "%"}, {"measurement": "percentage effect", "setting": "[9]", "result": 6, "unit": "%"}, {"measurement": "percentage effect", "setting": "[10]", "result": -17, "unit": "%"}, {"measurement": "fraction unbound", "setting": "[11]", "result": 0.038}, {"measurement": "Vd", "setting": "[12]; iv, 0.2 mg/kg", "result": 1.87, "unit": "L/kg"}, {"measurement": "clearance", "setting": "[12]; iv, 0.2 mg/kg", "result": 32.3, "unit": "mL/min/kg"}, {"measurement": "bioavailability", "setting": "[12]; po, 0.5 mg/kg", "result": 18, "unit": "%"}, {"measurement": "percentage effect", "setting": "[13]", "result": -1, "unit": "%"}, {"measurement": "percentage effect", "setting": "[14]", "result": -4, "unit": "%"}, {"measurement": "percentage effect", "setting": "[15]", "result": -18, "unit": "%"}, {"measurement": "residence time", "setting": "[16]", "result": "15 ± 2", "unit": "min"}]}, {"compound": "COC1CN(C(=O)c2ccc3c(N)ncc(-c4ccc(-c5cnn(C)c5)cc4)c3c2)C1", "note": "[Compound 59]", "values": [{"measurement": "percentage effect", "setting": "[1]", "result": -11, "unit": "%"}, {"measurement": "percentage effect", "setting": "[17]", "result": 4, "unit": "%"}, {"measurement": "percentage effect", "setting": "[2]", "result": -10, "unit": "%"}, {"measurement": "percentage effect", "setting": "[18]", "result": -6, "unit": "%"}, {"measurement": "percentage effect", "setting": "[3]", "result": 3, "unit": "%"}, {"measurement": "percentage effect", "setting": "[4]", "result": 5, "unit": "%"}, {"measurement": "percentage effect", "setting": "[19]", "result": -2, "unit": "%"}, {"measurement": "percentage effect", "setting": "[20]", "result": -3, "unit": "%"}, {"measurement": "percentage effect", "setting": "[21]", "result": -9, "unit": "%"}, {"measurement": "percentage effect", "setting": "[22]", "result": -9, "unit": "%"}, {"measurement": "percentage effect", "setting": "[23]", "result": 6, "unit": "%"}, {"measurement": "percentage effect", "setting": "[24]", "result": -12, "unit": "%"}, {"measurement": "percentage effect", "setting": "[25]", "result": -9, "unit": "%"}, {"measurement": "percentage effect", "setting": "[26]", "result": -4, "unit": "%"}, {"measurement": "percentage effect", "setting": "[27]", "result": -3, "unit": "%"}, {"measurement": "percentage effect", "setting": "[28]", "result": -3, "unit": "%"}, {"measurement": "percentage effect", "setting": "[29]", "result": -2, "unit": "%"}, {"measurement": "percentage effect", "setting": "[6]", "result": -3, "unit": "%"}, {"measurement": "percentage effect", "setting": "[30]", "result": -21, "unit": "%"}, {"measurement": "percentage effect", "setting": "[31]", "result": 1, "unit": "%"}, {"measurement": "percentage effect", "setting": "[32]", "result": -10, "unit": "%"}, {"measurement": "percentage effect", "setting": "[33]", "result": -18, "unit": "%"}, {"measurement": "percentage effect", "setting": "[9]", "result": -10, "unit": "%"}, {"measurement": "percentage effect", "setting": "[10]", "result": -29, "unit": "%"}, {"measurement": "percentage effect", "setting": "[34]", "result": -19, "unit": "%"}, {"measurement": "percentage effect", "setting": "[35]", "result": -14, "unit": "%"}, {"measurement": "percentage effect", "setting": "[36]", "result": 0, "unit": "%"}, {"measurement": "percentage effect", "setting": "[37]", "result": -6, "unit": "%"}, {"measurement": "percentage effect", "setting": "[38]", "result": -15, "unit": "%"}, {"measurement": "percentage effect", "setting": "[14]", "result": -11, "unit": "%"}, {"measurement": "percentage effect", "setting": "[15]", "result": 3, "unit": "%"}, {"measurement": "percentage effect", "setting": "[39]", "result": -6, "unit": "%"}]}]}
